Data on three compounds can be found in PMC6437697 (Journal of Medicinal Chemistry, 2019).

What all share (experiment): KINOMEscan
Format in all cases: binding
What all share (settings): read-out: % control activity remaining

For assay [1], the target named is T1, HPK1 (Homo sapiens, UniProt Q92918).
T1 construct: purchased Eurofins DiscoverX KINOMEscan

For assay [2], the target named is T2, STK39 (Homo sapiens, UniProt Q9UEW8).
T2 construct: purchased Eurofins DiscoverX KINOMEscan

In assay [3] the target is T3, RIPK5 (Homo sapiens, UniProt Q6XUX3).
T3 construct: purchased Eurofins DiscoverX KINOMEscan
T3 sequence (Q6XUX3 1-929): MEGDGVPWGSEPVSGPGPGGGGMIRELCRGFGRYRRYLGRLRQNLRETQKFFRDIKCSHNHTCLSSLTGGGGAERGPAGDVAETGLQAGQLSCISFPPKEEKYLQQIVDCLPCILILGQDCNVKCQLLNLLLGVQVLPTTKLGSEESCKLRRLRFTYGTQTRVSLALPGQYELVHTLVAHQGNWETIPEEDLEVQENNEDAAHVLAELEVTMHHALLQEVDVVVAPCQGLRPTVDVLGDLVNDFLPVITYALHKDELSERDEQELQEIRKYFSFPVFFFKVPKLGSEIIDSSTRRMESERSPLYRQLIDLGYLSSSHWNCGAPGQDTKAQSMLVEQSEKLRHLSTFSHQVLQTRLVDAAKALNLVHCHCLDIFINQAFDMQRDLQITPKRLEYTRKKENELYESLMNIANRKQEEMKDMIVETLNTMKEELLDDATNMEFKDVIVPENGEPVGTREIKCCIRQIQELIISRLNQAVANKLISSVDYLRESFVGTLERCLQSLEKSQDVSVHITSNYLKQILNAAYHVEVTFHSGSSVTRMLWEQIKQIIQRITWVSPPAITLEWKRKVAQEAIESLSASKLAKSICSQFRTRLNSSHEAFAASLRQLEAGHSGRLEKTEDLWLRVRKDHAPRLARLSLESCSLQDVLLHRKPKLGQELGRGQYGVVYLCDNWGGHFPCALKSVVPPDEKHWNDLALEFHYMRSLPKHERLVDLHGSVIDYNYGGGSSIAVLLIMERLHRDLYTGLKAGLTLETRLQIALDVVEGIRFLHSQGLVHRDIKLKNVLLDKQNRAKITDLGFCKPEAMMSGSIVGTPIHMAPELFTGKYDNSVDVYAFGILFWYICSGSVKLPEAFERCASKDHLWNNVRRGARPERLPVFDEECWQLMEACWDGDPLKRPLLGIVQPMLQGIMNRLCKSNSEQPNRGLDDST

Assay [4] addresses T4, DYRK2 (Homo sapiens, UniProt Q92630).
T4 construct: purchased Eurofins DiscoverX KINOMEscan
T4 sequence (Q92630 1-601): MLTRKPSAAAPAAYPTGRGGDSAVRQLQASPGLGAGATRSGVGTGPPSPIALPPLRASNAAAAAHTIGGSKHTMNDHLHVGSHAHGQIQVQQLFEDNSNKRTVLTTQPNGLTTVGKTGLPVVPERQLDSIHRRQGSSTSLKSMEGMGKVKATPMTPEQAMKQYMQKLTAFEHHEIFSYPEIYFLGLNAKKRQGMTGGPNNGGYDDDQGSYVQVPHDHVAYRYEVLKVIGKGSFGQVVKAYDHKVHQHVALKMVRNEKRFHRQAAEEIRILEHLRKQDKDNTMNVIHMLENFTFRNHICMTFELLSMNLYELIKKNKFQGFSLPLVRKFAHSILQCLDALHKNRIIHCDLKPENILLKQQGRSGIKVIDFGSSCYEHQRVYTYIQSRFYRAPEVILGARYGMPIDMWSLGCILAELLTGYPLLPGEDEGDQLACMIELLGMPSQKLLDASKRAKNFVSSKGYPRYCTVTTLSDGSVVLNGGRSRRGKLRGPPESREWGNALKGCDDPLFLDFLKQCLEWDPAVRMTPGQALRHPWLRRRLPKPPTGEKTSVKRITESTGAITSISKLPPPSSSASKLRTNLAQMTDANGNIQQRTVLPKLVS

The target in assay [5] is T5, RSK3(Kin.Dom.2-C-terminal) (Homo sapiens, UniProt Q15349).
T5 construct: RSK3(Kin.Dom.2-C-terminal); purchased Eurofins DiscoverX KINOMEscan

In assay [6] the target is T6, LATS2 (Homo sapiens, UniProt Q9NRM7).
T6 construct: purchased Eurofins DiscoverX KINOMEscan
T6 sequence (Q9NRM7 1-1088): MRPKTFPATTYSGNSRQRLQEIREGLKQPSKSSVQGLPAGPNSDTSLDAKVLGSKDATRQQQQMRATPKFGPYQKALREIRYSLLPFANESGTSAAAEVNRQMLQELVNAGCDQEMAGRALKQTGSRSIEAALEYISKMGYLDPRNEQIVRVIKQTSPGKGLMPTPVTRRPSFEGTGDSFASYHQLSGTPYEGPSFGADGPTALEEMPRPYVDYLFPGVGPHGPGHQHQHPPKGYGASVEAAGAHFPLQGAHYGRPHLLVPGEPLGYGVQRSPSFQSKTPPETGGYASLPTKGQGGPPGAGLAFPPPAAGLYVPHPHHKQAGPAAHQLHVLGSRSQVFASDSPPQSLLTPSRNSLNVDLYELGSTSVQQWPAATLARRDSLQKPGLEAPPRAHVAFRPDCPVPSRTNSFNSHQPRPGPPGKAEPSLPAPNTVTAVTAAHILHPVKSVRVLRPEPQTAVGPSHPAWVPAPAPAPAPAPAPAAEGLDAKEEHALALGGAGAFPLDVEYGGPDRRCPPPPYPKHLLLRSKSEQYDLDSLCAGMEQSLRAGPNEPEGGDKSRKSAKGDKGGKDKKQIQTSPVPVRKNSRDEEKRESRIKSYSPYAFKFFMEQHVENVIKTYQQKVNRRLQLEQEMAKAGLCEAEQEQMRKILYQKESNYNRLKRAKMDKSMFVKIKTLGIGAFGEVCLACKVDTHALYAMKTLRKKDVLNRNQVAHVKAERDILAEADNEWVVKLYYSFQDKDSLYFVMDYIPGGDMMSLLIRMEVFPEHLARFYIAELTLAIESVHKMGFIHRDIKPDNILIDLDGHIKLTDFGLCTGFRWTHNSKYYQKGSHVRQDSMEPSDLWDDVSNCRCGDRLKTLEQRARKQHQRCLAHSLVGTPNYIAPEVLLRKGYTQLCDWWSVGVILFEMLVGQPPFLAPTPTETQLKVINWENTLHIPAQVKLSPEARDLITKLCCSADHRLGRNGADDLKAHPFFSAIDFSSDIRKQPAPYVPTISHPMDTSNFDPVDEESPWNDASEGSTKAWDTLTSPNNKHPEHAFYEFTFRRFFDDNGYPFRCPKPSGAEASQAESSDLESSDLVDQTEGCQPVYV

Assay [7] concerns the target T7, PIK3CA(M1043I) (Homo sapiens, UniProt P42336, M1043I).
T7 construct: purchased Eurofins DiscoverX KINOMEscan

Assay [8] concerns the target T8, CHEK2 (Homo sapiens, UniProt O96017).
T8 construct: purchased Eurofins DiscoverX KINOMEscan

The target in assay [9] is T9, ERN1 (Homo sapiens, UniProt O75460).
T9 construct: purchased Eurofins DiscoverX KINOMEscan

SMILES strings stand for the structures.

T5 sequence (Q15349 415-672 limits assumed): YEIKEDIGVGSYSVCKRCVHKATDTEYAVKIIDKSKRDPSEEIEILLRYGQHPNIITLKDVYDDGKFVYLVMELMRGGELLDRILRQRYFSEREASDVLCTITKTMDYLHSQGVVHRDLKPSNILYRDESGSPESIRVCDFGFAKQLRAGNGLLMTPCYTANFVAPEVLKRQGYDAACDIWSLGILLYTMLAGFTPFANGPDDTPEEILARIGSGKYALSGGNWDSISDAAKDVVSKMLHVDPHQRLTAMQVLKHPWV
T9 sequence (O75460 19-977): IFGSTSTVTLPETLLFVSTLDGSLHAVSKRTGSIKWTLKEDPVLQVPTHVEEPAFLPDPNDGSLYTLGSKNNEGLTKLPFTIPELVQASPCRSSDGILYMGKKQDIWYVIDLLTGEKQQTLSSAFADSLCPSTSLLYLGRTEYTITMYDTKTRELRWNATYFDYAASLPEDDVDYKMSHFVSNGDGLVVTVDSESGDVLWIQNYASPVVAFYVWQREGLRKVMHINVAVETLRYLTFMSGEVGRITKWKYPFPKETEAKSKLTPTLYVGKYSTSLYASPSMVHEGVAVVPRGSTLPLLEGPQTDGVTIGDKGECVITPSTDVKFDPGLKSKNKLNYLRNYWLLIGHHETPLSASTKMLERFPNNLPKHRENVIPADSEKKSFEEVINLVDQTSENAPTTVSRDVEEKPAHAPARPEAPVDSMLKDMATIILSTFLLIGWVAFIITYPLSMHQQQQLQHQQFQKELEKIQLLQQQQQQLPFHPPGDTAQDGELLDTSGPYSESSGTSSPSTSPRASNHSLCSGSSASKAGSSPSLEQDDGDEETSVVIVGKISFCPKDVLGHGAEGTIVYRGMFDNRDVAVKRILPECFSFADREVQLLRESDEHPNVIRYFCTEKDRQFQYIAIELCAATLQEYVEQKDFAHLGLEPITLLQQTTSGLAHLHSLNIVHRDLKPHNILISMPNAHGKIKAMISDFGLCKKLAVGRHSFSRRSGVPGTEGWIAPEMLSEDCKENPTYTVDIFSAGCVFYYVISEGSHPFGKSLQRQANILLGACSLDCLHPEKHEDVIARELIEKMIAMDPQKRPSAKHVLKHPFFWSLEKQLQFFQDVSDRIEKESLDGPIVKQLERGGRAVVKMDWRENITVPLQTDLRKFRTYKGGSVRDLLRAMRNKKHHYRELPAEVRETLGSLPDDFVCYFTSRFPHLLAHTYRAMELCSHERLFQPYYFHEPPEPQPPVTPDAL
T8 sequence (O96017 whole entry): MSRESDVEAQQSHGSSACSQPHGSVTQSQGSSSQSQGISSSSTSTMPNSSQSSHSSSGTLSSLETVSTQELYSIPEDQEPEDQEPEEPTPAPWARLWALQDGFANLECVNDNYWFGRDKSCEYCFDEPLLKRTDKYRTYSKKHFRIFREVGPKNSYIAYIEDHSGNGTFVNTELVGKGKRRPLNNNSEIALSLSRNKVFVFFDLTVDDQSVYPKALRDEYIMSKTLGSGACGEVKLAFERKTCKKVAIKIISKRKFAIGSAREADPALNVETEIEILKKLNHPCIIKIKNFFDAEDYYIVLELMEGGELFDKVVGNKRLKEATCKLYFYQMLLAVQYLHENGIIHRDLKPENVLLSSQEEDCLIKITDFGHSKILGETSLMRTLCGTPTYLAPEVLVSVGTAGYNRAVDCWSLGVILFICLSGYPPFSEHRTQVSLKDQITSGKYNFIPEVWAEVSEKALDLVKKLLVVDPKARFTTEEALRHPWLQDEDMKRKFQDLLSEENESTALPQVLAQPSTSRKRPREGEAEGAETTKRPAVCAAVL
T1 sequence (Q92918 whole entry): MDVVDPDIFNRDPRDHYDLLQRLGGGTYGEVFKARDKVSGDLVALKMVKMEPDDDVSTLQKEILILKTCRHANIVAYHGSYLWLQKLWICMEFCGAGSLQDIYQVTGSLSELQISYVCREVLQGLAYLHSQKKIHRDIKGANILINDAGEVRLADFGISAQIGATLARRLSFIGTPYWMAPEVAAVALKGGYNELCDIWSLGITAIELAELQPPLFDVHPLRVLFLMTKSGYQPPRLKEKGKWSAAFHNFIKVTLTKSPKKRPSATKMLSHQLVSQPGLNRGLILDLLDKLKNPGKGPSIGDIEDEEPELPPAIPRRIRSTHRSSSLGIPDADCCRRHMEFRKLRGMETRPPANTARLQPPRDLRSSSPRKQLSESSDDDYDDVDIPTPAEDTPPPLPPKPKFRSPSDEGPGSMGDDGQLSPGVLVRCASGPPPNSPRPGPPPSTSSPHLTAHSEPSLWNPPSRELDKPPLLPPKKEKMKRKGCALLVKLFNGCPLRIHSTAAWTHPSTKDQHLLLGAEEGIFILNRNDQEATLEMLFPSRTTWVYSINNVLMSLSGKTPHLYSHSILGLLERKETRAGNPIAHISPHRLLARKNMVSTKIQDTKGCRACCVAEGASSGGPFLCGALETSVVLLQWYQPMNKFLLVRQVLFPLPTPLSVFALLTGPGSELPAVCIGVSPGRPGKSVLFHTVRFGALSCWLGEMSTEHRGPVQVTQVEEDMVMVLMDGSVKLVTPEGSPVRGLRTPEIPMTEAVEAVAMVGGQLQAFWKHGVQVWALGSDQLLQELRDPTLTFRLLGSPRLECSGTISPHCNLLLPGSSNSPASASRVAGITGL
T7 sequence (P42336 whole entry M1043I): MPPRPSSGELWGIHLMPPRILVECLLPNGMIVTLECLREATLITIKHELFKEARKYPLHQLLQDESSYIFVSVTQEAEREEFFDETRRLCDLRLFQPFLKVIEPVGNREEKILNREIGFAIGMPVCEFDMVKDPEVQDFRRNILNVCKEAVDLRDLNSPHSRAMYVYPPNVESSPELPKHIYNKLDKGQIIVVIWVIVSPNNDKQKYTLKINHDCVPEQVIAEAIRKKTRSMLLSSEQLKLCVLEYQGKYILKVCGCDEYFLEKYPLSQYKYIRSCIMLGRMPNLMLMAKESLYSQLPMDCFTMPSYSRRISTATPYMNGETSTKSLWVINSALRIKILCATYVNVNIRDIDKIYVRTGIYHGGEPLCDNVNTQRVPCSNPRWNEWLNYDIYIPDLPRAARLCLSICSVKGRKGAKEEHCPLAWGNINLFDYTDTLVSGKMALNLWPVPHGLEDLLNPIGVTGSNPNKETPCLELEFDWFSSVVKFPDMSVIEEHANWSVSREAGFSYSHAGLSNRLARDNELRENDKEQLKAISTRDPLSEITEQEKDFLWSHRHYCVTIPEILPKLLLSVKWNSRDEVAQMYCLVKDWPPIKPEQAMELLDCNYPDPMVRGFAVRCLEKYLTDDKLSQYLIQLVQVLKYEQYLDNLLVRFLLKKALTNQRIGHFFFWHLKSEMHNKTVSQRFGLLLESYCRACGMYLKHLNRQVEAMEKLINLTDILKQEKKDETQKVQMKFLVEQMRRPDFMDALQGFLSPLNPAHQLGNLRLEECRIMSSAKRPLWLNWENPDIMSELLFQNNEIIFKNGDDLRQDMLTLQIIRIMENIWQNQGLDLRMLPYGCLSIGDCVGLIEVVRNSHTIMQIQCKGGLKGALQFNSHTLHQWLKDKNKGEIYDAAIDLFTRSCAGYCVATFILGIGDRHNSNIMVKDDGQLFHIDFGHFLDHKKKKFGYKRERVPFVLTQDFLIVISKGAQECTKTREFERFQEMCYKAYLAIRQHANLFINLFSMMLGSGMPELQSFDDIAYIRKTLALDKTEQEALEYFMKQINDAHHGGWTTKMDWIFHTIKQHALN

`Clc1cc(NCC2CC2)c2ncc(-c3ccc4[nH]ncc4c3)n2n1` [compound 2, 6-Chloro-N-(cyclopropylmethyl)-3-(1H-indazol-5-yl)imidazo[1,2-b]pyridazin-8-amine]: the remaining binding at 1 µM in assay [1] is 75%; in assay [2], 88%; in [3], 98%; in assay [4], 28%; in assay [5], 100%; in assay [6], 58%. Further, the remaining binding at 1 µM is 59% in assay [7], 88% in assay [8] and 69% in assay [9].

As for `O=C(CN1CCOCC1)N[C@H]1CC[C@H](Nc2cc(Cl)nn3c(-c4ccc5[nH]ncc5c4)cnc23)CC1` [compound 26], the remaining binding at 1 µM was 88% in assay [1]; 89% in assay [2]; 91% in [3]; 8% in [4]; 94% in assay [5]; 73% in assay [6]. For the same compound, the remaining binding at 1 µM in assay [7] was 81%; in assay [8], 61%; in assay [9], 41%.

Turning to `CN1CCC(CNc2cc(Cl)nn3c(-c4cc5nc(Nc6ccccc6)[nH]c5cc4F)cnc23)CC1` [compound 31, 6-Chloro-3-(6-fluoro-2-(phenylamino)-1H-benzo[d]imidazol-5-yl)-N-((1-methylpiperidin-4-yl)methyl)imidazo[1,2-b]pyridazin-8-amine], the remaining binding at 1 µM turned out to be 97% in assay [1]; 98% in [2]; 79% in assay [3]; 99% in assay [4]; 80% in [5]; 94% in [6]. Also, the results for the remaining binding at 1 µM in [7], in [8] and in assay [9] were 78%, 100% and 33%, respectively.
